Read-outs that look alike come from different tables or passages of the source.

Data on 20 compounds can be found in patent US10087188B2, “Benzamide imidazopyrazine Btk inhibitors” (MERCK SHARP & DOHME CORP., priority 2014, dated 2018).

Assay [1] addresses BTK enzyme (recombinant full-length BTK, hBTK) (Homo sapiens (Human), UniProt Q06187). The experiment in a line: Btk enzyme activity assay, LANCE TR-FRET. In kind it is biochemical. As to conditions: 50 pM hBTK, 2 μM biotin-A5-peptide, 25 μM ATP; 60 minute compound & enzyme incubation; read-out: BTK binding IC50. On the procedure:
Btk Enzyme Activity Assay Methods
BTK enzymatic activity was determined with the LANCE (Lanthanide Chelate Excite) TR-FRET (Time-resolved fluorescence resonance energy transfer) assay. […] After 60 minutes incubation with detection reagents, reaction plates were read on a PerkinElmer EnVision plate reader using standard TR-FRET protocol.
For orientation: TR-FRET usually uses a lanthanide donor and a delayed reading to cut background.

The subject of a further assay is HeLa cells. The experiment in a line: [3H] Adenosine uptake assay. It is filed as cell-based. The settings on record: accumulation of tritiated adenosine into HeLa cells, compound concentration range 10 μM to 0.032 nM, read-out: ADU inhibition IC50 (adenosine uptake inhibition potency). Put shortly:
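HeLa cells in HBSS + 5% FBS preincubated 30 min at ambient temperature with compound (0.25% DMSO), then [3H]adenosine (500 nM stock) added for 60 min. Uptake measured by scintillation proximity counting; IC50 from 4-parameter fit of counts vs log concentration.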

Chain of BTK enzyme (recombinant full-length BTK, hBTK) (Q06187 whole entry): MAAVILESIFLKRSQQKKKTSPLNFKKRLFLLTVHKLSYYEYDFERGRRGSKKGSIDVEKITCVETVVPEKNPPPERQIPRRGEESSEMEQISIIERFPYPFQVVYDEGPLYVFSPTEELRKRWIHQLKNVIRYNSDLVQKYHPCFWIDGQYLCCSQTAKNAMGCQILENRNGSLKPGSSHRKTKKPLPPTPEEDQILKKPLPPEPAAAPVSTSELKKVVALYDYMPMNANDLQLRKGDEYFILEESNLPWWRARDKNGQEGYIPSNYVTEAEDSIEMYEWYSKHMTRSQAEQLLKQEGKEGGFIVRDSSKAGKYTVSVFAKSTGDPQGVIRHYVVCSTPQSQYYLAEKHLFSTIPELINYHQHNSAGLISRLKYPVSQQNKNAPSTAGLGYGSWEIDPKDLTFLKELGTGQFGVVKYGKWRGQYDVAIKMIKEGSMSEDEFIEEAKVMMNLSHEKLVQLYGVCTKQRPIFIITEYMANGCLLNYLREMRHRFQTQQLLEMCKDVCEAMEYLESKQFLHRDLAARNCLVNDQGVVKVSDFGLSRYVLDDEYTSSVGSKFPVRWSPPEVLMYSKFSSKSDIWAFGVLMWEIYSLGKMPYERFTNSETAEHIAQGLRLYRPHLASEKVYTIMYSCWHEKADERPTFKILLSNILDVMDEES

One may read the IC50 as the concentration needed to halve the response being measured. Consider `CC(C)[C@@]1(C(=O)O)CC[C@H](c2nc(-c3ccc(C(=O)Nc4cc(C(F)(F)F)ccn4)cc3)c3c(N)ncc(Cl)n23)C1` [Example 107, (1R,3S)-3-[8-amino-5-chloro-1-(4-{[4-(trifluoromethyl)pyridin-2-yl]carbamoyl}phenyl)imidazo[1,5-a]pyrazin-3-yl]-1-(1-methylethyl) cyclopentane-carboxylic acid], for which the IC50 in assay [1] amounted to 3.2 nM; in the assay with HeLa cells (Homo sapiens, HeLa), 1390 nM.
In the case of `COc1cc(C(=O)Nc2cc(C(F)(F)F)ccn2)cc(F)c1-c1nc(C23CCC(C(=O)O)(CC2)CC3)n2ccnc(N)c12` [Example 108, 4-[8-amino-1-(2-fluoro-6-methoxy-4-{[4-(trifluoromethyl)pyridin-2-yl]carbamoyl}phenyl)imidazo[1,5-a]pyrazin-3-yl]bicyclo[2.2.2] octane-1-carboxylic acid], the 50% inhibitory concentration (IC50) in assay [1] turned out to be 0.73 nM; in the assay on HeLa cells (Homo sapiens, HeLa), 6690 nM.
Regarding `CCOc1cc(C(=O)Nc2cc(C(F)(F)F)ccn2)ccc1-c1nc([C@@H]2CC[C@@](C(=O)O)(C(C)C)C2)n2c(Cl)cnc(N)c12` [Example 109, (1S,3R)-3-[8-amino-5-chloro-1-(2-ethoxy-4-{[4-(trifluoromethyl)pyridin-2-yl]carbamoyl}phenyl)imidazo[1,5-a]pyrazin-3-yl]-1-(1-methylethyl)cyclo-pentanecarboxylic acid], the concentration for half-maximal inhibition (IC50) in assay [1] came to 0.64 nM; in the assay with HeLa cells (Homo sapiens, HeLa) it was 6840 nM.
For the compound `CCOc1cc(C(=O)Nc2cc(C(F)(F)F)ccn2)ccc1-c1nc([C@H]2CC[C@](C(=O)O)(C(C)C)C2)n2c(Cl)cnc(N)c12` [Example 110, (1R,3S)-3-[8-amino-5-chloro-1-(2-ethoxy-4-{[4-(trifluoromethyl)pyridin-2-yl]carbamoyl}phenyl)imidazo[1,5-a]pyrazin-3-yl]-1-(1-methylethyl) cyclopentane-carboxylic acid], the IC50 is 2.1 nM in assay [1] and 4750 nM in the assay with HeLa cells (Homo sapiens, HeLa).
With `CCOc1cc(C(=O)Nc2cc(C(F)(F)F)ccn2)ccc1-c1nc([C@H]2CC[C@@](C(=O)O)(C(C)C)C2)n2c(Cl)cnc(N)c12` [Example 111, (1S,3S)-3-[8-amino-5-chloro-1-(2-ethoxy-4-{[4-(trifluoromethyl)pyridin-2-yl]carbamoyl}phenyl)imidazo[1,5-a]pyrazin-3-yl]-1-(1-methylethyl) cyclopentane-carboxylic acid], the IC50 in assay [1] came to 24.9 nM; in the assay on HeLa cells (Homo sapiens, HeLa), 10000 nM.
Consider `CCOc1cc(C(=O)Nc2cc(C(F)(F)F)ccn2)ccc1-c1nc([C@@H]2CC[C@](C(=O)O)(C(C)C)C2)n2c(Cl)cnc(N)c12` [Example 112, (1R,3R)-3-[8-amino-5-chloro-1-(2-ethoxy-4-{[4-(trifluoromethyl)pyridin-2-yl]carbamoyl}phenyl)imidazo[1,5-a]pyrazin-3-yl]-1-(1-methylethyl) cyclopentane-carboxylic acid], for which the IC50 amounted to 21.7 nM in assay [1] and 10000 nM with HeLa cells (Homo sapiens, HeLa).
For `CCOc1cc(C(=O)Nc2cc(C(F)(F)F)ccn2)cc(F)c1-c1nc([C@@H]2CC[C@](C)(C(=O)O)C2(C)C)n2ccnc(N)c12` [Example 113, (1S,3R)-3-[8-amino-1-(2-ethoxy-6-fluoro-4-{[4-(trifluoromethyl)pyridin-2-yl]carbamoyl}phenyl)imidazo[1,5-a]pyrazin-3-yl]-1,2,2-trimethylcyclopentane carboxylic acid], the IC50 in assay [1] amounted to 0.48 nM; in the assay on HeLa cells (Homo sapiens, HeLa), 5940 nM.
For `CCOc1cc(C(=O)Nc2cc(C(F)(F)F)ccn2)c(F)cc1-c1nc([C@@H]2CC[C@](C)(C(=O)O)C2(C)C)n2ccnc(N)c12` [Example 114, (1S,3R)-3-[8-amino-1-(2-ethoxy-5-fluoro-4-{[4-(trifluoromethyl)pyridin-2-yl]carbamoyl}phenyl)imidazo[1,5-a]pyrazin-3-yl]-1,2,2-trimethylcyclopentane carboxylic acid], the IC50 in assay [1] amounted to 0.92 nM; in the assay with HeLa cells (Homo sapiens, HeLa), 2750 nM.
The corresponding values for `COc1cc(C(=O)Nc2cc(C(F)(F)F)ccn2)cc(F)c1-c1nc([C@@H]2CC[C@](C)(C(=O)O)C2(C)C)n2ccnc(N)c12` [Example 115, (1S,3R)-3-[8-amino-1-(2-fluoro-6-methoxy-4-{[4-(trifluoromethyl)pyridin-2-yl]carbamoyl}phenyl)imidazo[1,5-a]pyrazin-3-yl]-1,2,2-trimethylcyclopentane carboxylic acid] are 0.26 nM and 8840 nM.
As for `CCOc1cc(C(=O)Nc2cc(C(F)(F)F)ccn2)ccc1-c1nc([C@@H]2CC[C@@H](C(=O)O)O2)n2ccnc(N)c12` [Example 116, (2S,5S)-5-[8-amino-1-(2-ethoxy-4-{[4-(trifluoromethyl)pyridin-2-yl]carbamoyl}phenyl)imidazo[1,5-a]pyrazin-3-yl]tetrahydrofuran-2-carboxylic acid], the half-maximal inhibitory concentration (IC50) was 22 nM in assay [1] and 1140 nM in the assay on HeLa cells.
The corresponding values for `CCOc1cc(C(=O)Nc2cc(C(F)(F)F)ccn2)ccc1-c1nc([C@@H]2CC[C@@H](C(=O)O)O2)n2ccnc(N)c12` [Example 117, (2S,5S)-5-[8-amino-1-(2-ethoxy-4-{[4-(trifluoromethyl)pyridin-2-yl]carbamoyl}phenyl)imidazo[1,5-a]pyrazin-3-yl]tetrahydrofuran-2-carboxylic acid] are 8.7 nM and 3050 nM.
On to `CCOc1cc(C(=O)Nc2cc(C(F)(F)F)ccn2)cc(F)c1-c1nc([C@@H]2CC[C@](C)(C(=O)O)C2(C)C)n2c(F)cnc(N)c12` [Example 118, (1S,3R)-3-[8-amino-1-(2-ethoxy-6-fluoro-4-{[4-(trifluoromethyl)pyridin-2-yl]carbamoyl}phenyl)-5-fluoroimidazo[1,5-a]pyrazin-3-yl]-1,2,2-trimethylcyclopentane carboxylic acid], for which the 50% inhibitory concentration (IC50) in assay [1] stood at 1.3 nM; in the assay on HeLa cells (Homo sapiens, HeLa), 10000 nM.
Turning to `CCOc1cc(C(=O)Nc2cc(C(F)(F)F)ccn2)cc(F)c1-c1nc([C@]2(C)CC[C@@](C)(C(=O)O)CC2)n2ccnc(N)c12` [Example 119, trans-4-[8-amino-1-(2-ethoxy-6-fluoro-4-{[4-(trifluoromethyl)pyridin-2-yl]carbamoyl}phenyl)imidazo[1,5-a]pyrazin-3-yl]-1,4-dimethylcyclohexane-carboxylic acid], the half-maximal inhibitory concentration (IC50) in assay [1] turned out to be 0.96 nM; in the assay on HeLa cells (Homo sapiens, HeLa), 10000 nM.
Regarding `CCOc1cc(C(=O)Nc2cc(C(F)(F)F)ccn2)c(F)cc1-c1nc(C2(C)CCC(C)(C(=O)O)CC2)n2ccnc(N)c12` (stereo not shown) [Example 120, 4-[8-amino-1-(2-ethoxy-5-fluoro-4-{[4-(trifluoromethyl)pyridin-2-yl]carbamoyl}phenyl)imidazo[1,5-a]pyrazin-3-yl]-1,4-dimethylcyclohexane-carboxylic acid], the IC50 in assay [1] was found to be 4 nM; in the assay with HeLa cells (Homo sapiens, HeLa), 10000 nM.
For `CCOc1cc(C(=O)Nc2cc(C3CC3)ccn2)cc(F)c1-c1nc([C@@H]2CC[C@](C)(C(=O)O)C2(C)C)n2ccnc(N)c12` [Example 121, (1S,3R)-3-(8-amino-1-{4-[(4-cyclopropylpyridin-2-yl)carbamoyl]-2-ethoxy-6-fluorophenyl}imidazo [1,5-a]pyrazin-3-yl)-1,2,2-trimethylcyclopentane carboxylic acid], the IC50 came out at 0.37 nM in assay [1] and 7320 nM in the assay with HeLa cells (Homo sapiens, HeLa).
Turning to `COc1cc(C(=O)Nc2cc(C(F)(F)F)ccn2)cc(F)c1-c1nc(C23CCC(C(=O)O)(CC2)CC3)n2c(F)cnc(N)c12` [Example 122, 4-[8-amino-5-fluoro-1-(2-fluoro-6-methoxy-4-{[4-(trifluoromethyl)pyridin-2-yl]carbamoyl}phenyl)imidazo[1,5-a]pyrazin-3-yl]bicyclo[2.2.2] octane-1-carboxylic acid], the half-inhibitory concentration (IC50) in assay [1] was determined as 0.91 nM; in the assay on HeLa cells (Homo sapiens, HeLa), 10000 nM.
Turning to `CCOc1cc(C(=O)Nc2cc(C3CC3)ccn2)cc(F)c1-c1nc([C@@]2(C)CC[C@](C)(C(=O)O)C2)n2ccnc(N)c12` [Example 123, (1S,3S)-3-(8-amino-1-{4-[(4-cyclopropylpyridin-2-yl)carbamoyl]-2-ethoxy-6-fluorophenyl}imidazo [1,5-a]pyrazin-3-yl)-1,3-dimethylcyclopentane carboxylic acid], the IC50 is 0.57 nM in assay [1] and 10000 nM with HeLa cells (Homo sapiens, HeLa).
The corresponding values for `CCOc1cc(C(=O)Nc2cc(C(F)(F)F)ccn2)cc(F)c1-c1nc([C@@]2(C)CC[C@](C)(C(=O)O)C2)n2ccnc(N)c12` [Example 126, (1S,3S)-3-[8-amino-1-(2-ethoxy-6-fluoro-4-{[4-(trifluoromethyl)pyridin-2-yl]carbamoyl}phenyl)imidazo[1,5-a]pyrazin-3-yl]-1,3-dimethylcyclopentane carboxylic acid] are 0.47 nM and 10000 nM.
Consider `COc1cc(C(=O)Nc2cc(C(F)(F)F)ccn2)cc(F)c1-c1nc(C2(C)CCC(C)(C(=O)O)CC2)n2ccnc(N)c12` (stereo not shown) [Example 127, 4-[8-amino-1-(2-fluoro-6-methoxy-4-{[4-(trifluoromethyl)pyridin-2-yl]carbamoyl}phenyl)imidazo[1,5-a]pyrazin-3-yl]-1,4-dimethylcyclohexane-carboxylic acid], for which the half-maximal inhibitory concentration (IC50) worked out at 1.3 nM in assay [1] and 10000 nM with HeLa cells (Homo sapiens, HeLa).
The corresponding values for `CCOc1cc(C(=O)Nc2cc(C(F)(F)F)ccn2)c(F)cc1-c1nc([C@@]2(C)CC[C@](C)(C(=O)O)C2)n2ccnc(N)c12` [Example 128, (1S,3S)-3-[8-amino-1-(2-ethoxy-5-fluoro-4-{[4-(trifluoromethyl)pyridin-2-yl]carbamoyl}phenyl)imidazo[1,5-a]pyrazin-3-yl]-1,3-dimethylcyclopentane carboxylic acid] are 1.6 nM and 9380 nM.
